In series [1] the test system is undesired urotoxic side effects caused by cytostatically active alkylating agents. The conditions noted are these: background, cited from earlier work; for effect of introducing solutions into the urinary bladder by catheter: instillation, in particular cytostatics at very high dosages; for protective activity against cytostatically active alkylating agents: cysteine compared with salts of mercapto alkane sulfonic acids, cystine = corresponding disulfide.

The test system of series [2] is kidneys, urinary tracts and urinary bladder. Description: urotoxic side effects in cancer patients treated with ifosfamide (hematuria, albuminuria, damage to kidney and urinary bladder). As to conditions: for hematuria under ifosfamide therapy without thiol/disulfide protection: 5 times per day, 5 days. The series is classed as in vivo, human. How it is done:
In accordance with the known practice of therapy a patient and suffering from a theratoid carcinoma of the testicle, at first is subjected to irradiation and thereafter is treated with ifosfamide [i.e. 2-(N-2-chloroethyl-amino)-3-(2-chloroethyl)-2-oxo-1,3,2-oxazaphosphorinane] at 5 times per day, each time with 60 mg./kg. intravenously and at 5 subsequent days. The patient is simultaneously hydrated by administration of 4 liters of water spread over the day and is alkalinized by administration of hexapotassium hexasodium pentacitrate hydrate complex. […] This necessitated immediate rupture of the therapy. After a recovery period of 14 days, the therapy is repeated. However, 60 mg/kg. of the disodium salt of 2,2'-dithiodi-(ethane sulfonic acid) is administered intravenously and simultaneously with each dose of 60 mg/kg. of ifosfamide. The patient is controlled daily for micro- and […] and for albuminuria.
In another patient suffering from the same tumor, the therapy at first is started with the oral administration of 60 mg./kg. of the disodium salt of 2.2'-dithiodi-(ethane sulfonic acid). Two hours thereafter, 60 mg./kg. of ifosfamide are administered intravenously. The same treatment, i.e. the combination of an oral preadministration of the disodium salt of 2,2'-dithiodi-(ethane sulfonic acid) and a subsequent intravenous administration of 60 mg./kg. of ifosfamide is repeated at 5 subsequent days. […] In both the above treatments a moderate hydration (2 liters per day) has been carried out. The treatment rendered superfluous alkalinization as well as the most burdensome instillation of mercapto group containing compounds into the bladder of the patient by means of a catheter.
According to the general experience with such patients, there occurs very readily […] despite application of all known prophylactic treatments such as hydration, alkalinization or instillation of mercapto group containing compounds into the urinary bladder.
(§1) In accordance with the known practice of therapy, a patient and suffering from a cancer of the ovary, at first is subjected to irradiation and thereafter is treated with ifosfamide [i.e. 2-(N-2-chloroethyl-amino)-3-(2-chloroethyl)-2-oxo-1,3,2-oxazaphosphorinane] at 5 times per day, each time with 60 mg./kg. intravenously and at 5 subsequent days. […] After a recovery period of 14 days the therapy is repeated. However, 35 mg./kg. of the sodium salt of 2-mercapto ethane sulfonic acid is administered intravenously and simultaneously with each dose of 60 mg./kg. of ifosfamide, 60, 120 and, respectively, 180 minutes after this intravenous injection 45 mg. of the disodium salt of 2,2'-dithiodi-(ethanesulfonic acid) each time are administered to the patient. The patient is controlled daily for micro- and macrohematuria and for albuminuria. […] The examination of the urine upon cytotoxic activity at varying times after administration of ifosfamide also was negative.
The same protective treatment was effected with the same favourable results in patients suffering from other cancer deceases such as parvicellular bronchial carcinoma or pancreatic carcinoma.

Series [3] in a line: examination of the urine upon cytotoxic activity / cytostatically active metabolites after administration of ifosfamide. The series is classed as in vivo, human. The conditions noted are these: Example 4: same combination with sodium salt of 2-mercapto ethane sulfonic acid. The procedure: as §1

Structures can show the parent of a compound that is named as a salt.

As to `CC(=O)N[C@@H](CS)C(=O)O` [N-acetylcysteine], the “clinical effectiveness of the instillation prophylaxis” value in series [1] (instillation into urinary bladder with cyclophosphamide and ifosfamide at very high dosages) was “by no means was satisfactory”. In addition, the “effect of introducing solutions into the urinary bladder by catheter” value in series [1] is reported as “very limited”.
Consider `N[C@@H](CS)C(=O)O` [cysteine], for which, in series [1], the “protective activity against cytostatically active alkylating agents” value was “limited but distinct protective activity” and the “effect of introducing solutions into the urinary bladder by catheter” value is on record as “very limited”.
In the case of `N[C@@H](CSSC[C@H](N)C(=O)O)C(=O)O` [cystine], the “protective activity against cytostatically active alkylating agents” value in series [1] is on record as “does not have any such protective activity”.
Take `O=S(=O)(O)CCSSCCS(=O)(=O)O` [disodium salt of 2,2'-dithiodi-(ethanesulfonic acid)]: the “erythrocytes, albumina or granular cylindrical cells in the urine” value in series [2] (Example 1: 60 mg/kg i.v. simultaneously with each dose of 60 mg/kg ifosfamide, same patient after 14 days recovery) was “At no time during the treatment erythrocytes, albumina or granular cylindrical cells were found in the urine of the patient”. Also, the “damage to kidney or urinary bladder, hematuria, albumina or granular cylindrical cells in the urine” value in series [2] (Example 2: 60 mg/kg oral, two hours before ifosfamide 60 mg/kg i.v., 5 subsequent days, moderate hydration 2 liters per day) is “no indication of any damage to the kidney or the urinary bladder or of hematuria or of albumina or granular cylindrical cells in the urine of the patient at any time during the treatment”. Further, the “damage to the kidneys and the urinary bladder” value in series [2] (Example 3: 60 mg/kg i.v. simultaneously with ifosfamide 60 mg/kg i.v. single dose over 5 days, patient sensibilized by regional radiotherapy) was “there did not occur any damage to the kidneys and the urinary bladder”. In addition, the hematuria or albuminuria entry in series [2] (Example 4: 35 mg/kg sodium salt of 2-mercapto ethane sulfonic acid i.v. simultaneously with ifosfamide 60 mg/kg, then 45 mg disodium salt of 2,2'-dithiodi-(ethanesulfonic acid) at 60, 120 and 180 minutes) is “no indication of hematuria or albuminuria”. Besides, the “cytostatically active metabolites in the urine” value in series [3] (after ifosfamide) was “No cytostatically active metabolites were found in the urine”. Moreover, the “cytotoxic activity of the urine” value in series [3] (varying times after ifosfamide) is “negative”.
Regarding `O=P1(NCCCl)OCCCN1CCCl` (stereo not shown) [ifosfamide, 2-(N-2-chloroethyl-amino)-3-(2-chloroethyl)-2-oxo-1,3,2-oxazaphosphorinane], the “hematuria under ifosfamide therapy without thiol/disulfide protection” value in series [2] (Example 1: ifosfamide 60 mg/kg i.v., with hydration 4 liters and alkalinization, testicular carcinoma patient) is “macrohematuria already on the fourth day”; in series [2] (Example 4: ifosfamide 60 mg/kg i.v., with hydration and alkalinization, patient with cancer of the ovary), “microhematuria”.

These data come from patent US4218471A, “Process for the treatment of humans suffering from undesired urotoxic side effects caused by cytostatically active alkylating agents” (Asta-Werke Aktiengesellschaft Chemische Fabrik, priority 1978, dated 1980).
